Experimental data as given in ChEMBL document CHEMBL4177569, “Design, synthesis and preliminary antiproliferative activity studies of new diheteroaryl thioether derivatives” (Bioorg Med Chem Lett, 2017).

Legend:
Type in all cases: functional, cell-based
[1] = system: MKN-45; test: Antiproliferative activity against human MKN45 cells after 48 hrs by MTT assay; conditions: MKN-45, 48 h
[2] = system: NCI-H1650; test: Antiproliferative activity against human NCI-H1650 cells after 48 hrs by MTT assay; conditions: NCI-H1650, 48 h
[3] = system: MGC-803; test: Antiproliferative activity against human MGC803 cells after 48 hrs by MTT assay; conditions: MGC-803, 48 h
[4] = system: ECa-109 cell line; test: Antiproliferative activity against human EC109 cells after 48 hrs by MTT assay; conditions: ECa-109, 48 h

Structure (SMILES): O=c1[nH]cc(F)c(=O)[nH]1 [FLUOROURACIL]
- IC50 [1]: 8.89 µM
- IC50 [2]: 14.2 µM
- IC50 [3]: 7.52 µM
- IC50 [4]: 6.21 µM
